# Literature values, collected in US20240280563A1, “SYSTEMS AND METHODS FOR ION CHANNEL KINETICS ANALYSIS IN CLUSTERS OF ION CHANNELS” (Ohio State Innovation Foundation, priority 2023, published 2024).
# System: NaVs
# Conditions: disruption of cooperativity with difopein; this and previous studies (Clatot et al. 2017; Zheng and Deschênes 2023)
substance,measurement,value
difopein,effect on whole cell sodium current density,does not change significantly
